According to patent publication US20060198832A1, “Peptide drugs for chronic lymphocytic leukemia (CLL) and other cancers” (priority 2004, published 2006):
Where a SMILES comes first, the peptide text is derived from it. Bridges are numbered along the chain shown (N, C = ends). Roman numbers before positions name the chains, in order. Where no end group is shown, it is not given here. [ ]: non-standard residue; d: D form. Ahx = NCCCCCC(=O)O

Tests used:
[1] = tested on: chronic lymphocytic leukemia (CLL) cells; assay: viability/apoptosis of CLL cells electroporated with peptides (Annexin V-FITC/PI flow cytometry); type: cell-based, human; conditions: for cell viability (Induction of Apoptosis in CLL Cells), patient sample JCB 178: CLL patient sample JCB 178; for cell viability (Induction of Apoptosis in CLL Cells), patient sample JCB 178 / cell viability (Induction of Apoptosis in CLL Cells), patient sample MA G15 / cell viability (Induction of Apoptosis in CLL Cells), patient sample TJK 328 / cell viability (Induction of Apoptosis in CLL Cells), patient sample TJK 340 #1 / cell viability (Induction of Apoptosis in CLL Cells), patient sample TJK 340 #2 / cell viability (Induction of Apoptosis in CLL Cells), patient sample TJK 375 / cell viability (Induction of Apoptosis in CLL Cells), Av.: peptide electroporated; for cell viability (Induction of Apoptosis in CLL Cells), patient sample TJK 328: CLL patient sample TJK 328; for cell viability (Induction of Apoptosis in CLL Cells), patient sample TJK 340 #1: CLL patient sample TJK 340 #1; for cell viability (Induction of Apoptosis in CLL Cells), patient sample TJK 340 #2: CLL patient sample TJK 340 #2; for cell viability (Induction of Apoptosis in CLL Cells), patient sample TJK 375: CLL patient sample TJK 375; for cell viability (Induction of Apoptosis in CLL Cells), Av.: average of the five preceding patient sample columns; for cell viability of CLL cells / cell viability in all the patient CLL samples: electroporated peptide; for cell viability of CLL cells: FIG. 2; for cell viability in all the patient CLL samples: summary of Table 4
Excerpt: Peripheral blood mononuclear cells (PBMC) from patients with chronic lymphocytic leukemia (CLL) were obtained from the CLL Research Consortium (CRC) tissue bank. Briefly, heparinized peripheral blood was obtained from patients diagnosed with B-CLL according to standard criteria (Chenson et al., Blood 87:4990-4997 (1996)). Lymphocytes were isolated by Ficoll density-gradient centrifugation and verified by immunofluorescence flow cytometry to be composed of greater than 95% CD5/CD19/CD23 triple positive B cells. […] CLL cells were electroporated with a dimethyl sulfoxide (DMSO) control or peptides essentially as described in […] et al., J. Immunol. Methods 275:41-56 (2003), and […] et al., Cancer Res. 63:1242-1248 (2003). For evaluation of apoptosis, at least 5×10^5 cells were recovered by centrifugation and double-stained with Annexin V-FITC, an early marker of apoptosis, and propidium iodide (PI), a nucleic acid-binding vital dye, followed by flow-cytometric analysis using the FL-1 and FL-3 channels of a Becton Dickinson flow cytometer (FACSort; San Jose, Calif.).

[2] = Letai et al., Cancer Cell 2:183-192 (2002); cited from earlier work
[3] = molecular target: BCL-2 (Homo sapiens, UniProt P10415); conditions: Letai et al., Cancer Cell 2:183-192 (2002); cited from earlier work
[4] = tested on: CLL cells; assay: CLL cell viability, cell permeable peptides added directly to culture without electroporation; type: cell-based, human; conditions: for change in viability: TJK197 patient CLL cells, FIG. 4
Excerpt: Peripheral blood mononuclear cells (PBMC) from patients with chronic lymphocytic leukemia (CLL) were obtained from the CLL Research Consortium (CRC) tissue bank. Briefly, heparinized peripheral blood was obtained from patients diagnosed with B-CLL according to standard criteria (Chenson et al., Blood 87:4990-4997 (1996)). Lymphocytes were isolated by Ficoll density-gradient centrifugation and verified by immunofluorescence flow cytometry to be composed of greater than 95% CD5/CD19/CD23 triple positive B cells. CLL samples were incubated at 1×10^6 cells/ml in RPMI media supplemented with 10% FBS (fetal bovine serum) and 1 mM L-glutamine and antibiotics (penicillin/streptomycin) at 37° C. with 5% CO2 for 24 hours. CLL cells were electroporated with a dimethyl sulfoxide (DMSO) control or peptides essentially as described in Eksioglu-Demiralp et al., J. Immunol. Methods 275:41-56 (2003), and Schimmer et al., Cancer Res. 63:1242-1248 (2003).
For evaluation of apoptosis, at least 5×10^5 cells were recovered by centrifugation and double-stained with Annexin V-FITC, an early marker of apoptosis, and propidium iodide (PI), a nucleic acid-binding vital dye, followed by flow-cytometric analysis using the FL-1 and FL-3 channels of a Becton Dickinson flow cytometer (FACSort; San Jose, Calif.).
The wild type and modified BAD peptides fused to poly-arginine cell penetration sequences shown in Table 5 were synthesized by standard solid phase synthesis. CLL cell viability assays were performed as described above except that cell permeable peptides SEQ ID NOS: 28, 6 and 29 and the control, non-permeable peptide SEQ ID NO: 3 (see Table 5) were added directed to CLL cells in culture without electroporation.

[5] = tested on: Bcl-2; assay: BD Cytometric Bead Assay of Bcl-2 levels in peptide treated CLL cells; type: cell-based, human; conditions: TJK160 and TJK357 CLL patient cells, incubated with peptide for four hours, FIG. 5
Protocol: TJK160 and TJK357 CLL patient cells were treated with the modified BAD peptide SEQ ID NO: 6 or with control peptides SEQ ID NO: 29 and SEQ ID NO: 30 essentially as described above. To determine the levels of Bcl-2 in each of the peptide treated CLL samples, a BD™ Cytometric Bead Assay (BD CBA; BD Biosciences) was used to quantitatively measure active caspase-3, cleaved PARP and Bcl-2 levels in a single sample. In this assay, soluble analytes are measured using amplified fluorescence detection and flow cytometry, with each bead in a CBA providing a capture surface for a specific protein and being analogous to an individually coated well in an ELISA plate. A single bead population with a distinct fluorescence intensity is coated with a capture antibody specific for active caspase-3 protein, cleaved PARP protein or Bcl-2 protein and subsequently resolved in the FL3 channel of a BD FACSTM brand flow cytometer. The capture bead, PE-conjugated detection antibody, and cell lysate standard or test samples are incubated together to form sandwich complexes and analyzed using BD CBA Analysis Software. Cells were lysed in 1× CBA Cell Lysis Buffer supplemented with Protease Inhibitor Cocktail according to the manufacturer's protocol. Human active caspase-3, cleaved PARP and Bcl-2 lysate standards were reconstituted in deionized water at room temperature for 15 minutes. The standard was diluted by serial dilutions using assay diluent according to the manufacturer's protocol. Capture beads were vortexed before use, and 50 μl of capture beads were transferred to each assay tube. Standard dilutions and test samples were added to the appropriate sample tubes (50 μl/tube) and incubated at room temperature for one hour. […] After addition of 300 μl of Wash Buffer, samples were analyzed by the BD FACScan or BD FACSCalibur. Samples were analyzed by the use of BD CellQuest Software, and data were acquired by the use of the BD CBA Software. […]

[6] = molecular target: Bcl-2 family Bcl-2/x1 (Homo sapiens, UniProt P10415); assay: binding of penetratin-linked peptides to Bcl-2 (method not described)
[7] = tested on: acute myelogenous leukemia (AML) cells; assay: cell viability/apoptosis in patient AML cells; type: cell-based, human
Protocol: (§1) The peptides were tested in cell viability assays essentially as described above in Examples I and II. Experiments were carried out in 697-neo and 697-Bcl-2 cells. 697 cells are from a cell line of preB leukemic cells. 697-Bcl-2 cells have been engineered to express high levels of Bcl-2. AML-349 and AML-728 are myeloblasts (verified by FACS analysis via CD34-positivity) that were isolated from respective patients with acute myelogenous leukemia (AML).

[8] = tested on: 697-neo cells; assay: cell viability assay in 697-neo cells; type: cell-based; conditions: low Bcl-2, FIG. 6
Protocol: as §1

[9] = molecular target: T1, Bcl-2 (UniProt P10415 1-239, limits assumed); assay: inferred from cell viability of 697-neo against 697-Bcl2 cells
T1 construct: also called Bcl-2 protein
T1 sequence (P10415 whole entry): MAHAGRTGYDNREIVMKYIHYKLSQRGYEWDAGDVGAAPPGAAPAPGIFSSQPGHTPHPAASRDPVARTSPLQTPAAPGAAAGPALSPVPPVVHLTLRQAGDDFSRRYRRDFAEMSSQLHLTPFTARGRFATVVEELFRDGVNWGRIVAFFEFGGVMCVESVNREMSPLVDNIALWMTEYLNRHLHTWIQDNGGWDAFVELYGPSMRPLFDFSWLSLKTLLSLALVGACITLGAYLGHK

BCL-2, sequence (P10415 whole entry, species assumed): as the sequence (P10415 whole entry) above
Bcl-2 family Bcl-2/x1, sequence (P10415 1-205): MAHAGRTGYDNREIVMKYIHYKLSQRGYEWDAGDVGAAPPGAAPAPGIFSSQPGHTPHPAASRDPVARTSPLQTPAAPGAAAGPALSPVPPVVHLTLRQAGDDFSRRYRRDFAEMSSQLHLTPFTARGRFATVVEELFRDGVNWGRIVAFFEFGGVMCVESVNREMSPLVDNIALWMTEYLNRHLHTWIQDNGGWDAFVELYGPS

CSCC[C@H](NC(=O)[C@H](CCCNC(=N)N)NC(=O)[C@H](CCCNC(=N)N)NC(=O)[C@H](CC(C)C)NC(=O)[C@H](CCC(=O)O)NC(=O)[C@H](CCCNC(=N)N)NC(=O)CNC(=O)[C@H](Cc1ccc(O)cc1)NC(=O)[C@H](CCCNC(=N)N)NC(=O)[C@H](CCC(N)=O)NC(=O)[C@H](C)NC(=O)[C@H](C)NC(=O)[C@H](Cc1c[nH]c2ccccc12)NC(=O)[C@H](CC(C)C)NC(=O)[C@@H](N)CC(N)=O)C(=O)N[C@@H](CO)C(=O)N[C@@H](CC(=O)O)C(=O)N[C@@H](CCC(=O)O)C(=O)N[C@@H](Cc1ccccc1)C(=O)N[C@H](C(=O)N[C@@H](CC(=O)O)C(=O)N[C@@H](CO)C(=O)N[C@@H](Cc1ccccc1)C(=O)N[C@@H](CCCCN)C(=O)N[C@@H](CCCCN)C(=O)O)C(C)C [SEQ ID NO: 1]
cell viability (Induction of Apoptosis in CLL Cells), patient sample JCB 178 [1]: 45% | cell viability (Induction of Apoptosis in CLL Cells), patient sample MA G15 [1]: 4% | cell viability (Induction of Apoptosis in CLL Cells), patient sample TJK 328 [1]: 42% | cell viability (Induction of Apoptosis in CLL Cells), patient sample TJK 340 #1 [1]: 46% | cell viability (Induction of Apoptosis in CLL Cells), patient sample TJK 340 #2 [1]: 56% | cell viability (Induction of Apoptosis in CLL Cells), patient sample TJK 375 [1]: 47% | cell viability (Induction of Apoptosis in CLL Cells), Av. [1]: 47% | cell viability of CLL cells [1]: minimal or insignificant changes in viability | cell viability in all the patient CLL samples [1]: minimally effected | apoptotic activity [2]: does not have apoptotic activity | Kd [3]: ~40 nM

CSCC[C@H](NC(=O)[C@H](CCCNC(=N)N)NC(=O)[C@H](CCCNC(=N)N)NC(=O)[C@H](CC(C)C)NC(=O)[C@H](CCC(=O)O)NC(=O)[C@H](CCCNC(=N)N)NC(=O)CNC(=O)[C@H](Cc1ccc(O)cc1)NC(=O)[C@H](CCCNC(=N)N)NC(=O)[C@H](CCC(N)=O)NC(=O)[C@H](C)NC(=O)[C@H](C)NC(=O)[C@H](Cc1c[nH]c2ccccc12)NC(=O)[C@H](CC(C)C)NC(=O)[C@@H](N)CC(N)=O)C(=O)N[C@@H](C)C(=O)N[C@@H](CC(=O)O)C(=O)N[C@@H](CCC(=O)O)C(=O)N[C@@H](Cc1ccccc1)C(=O)N[C@H](C(=O)N[C@@H](CC(=O)O)C(=O)N[C@@H](C)C(=O)N[C@@H](Cc1ccccc1)C(=O)N[C@@H](CCCCN)C(=O)N[C@@H](CCCCN)C(=O)N[C@@H](CS)C(=O)NCCCCCC(=O)N[C@H](CCCNC(=N)N)C(=O)N[C@H](CCCNC(=N)N)C(=O)N[C@H](CCCNC(=N)N)C(=O)N[C@H](CCCNC(=N)N)C(=O)N[C@H](CCCNC(=N)N)C(=O)N[C@H](CCCNC(=N)N)C(=O)N[C@H](CCCNC(=N)N)C(=O)N[C@H](CCCNC(=N)N)C(=O)O)C(C)C [SEQ ID NO: 6] (H-NLWAAQRYGRELRRMADEFVDAFKKC[Ahx][dR][dR][dR][dR][dR][dR][dR][dR]-OH; N-terminus and C-terminus assumed)
cell viability, dose response ([4]; patient TJK379 CLL cells, FIG. 3): dose-dependent decrease in cell viability | percentage cell viability ([4]; patient TJK379 CLL cells, as little as 15 μM peptide): dramatically reduced | intracellular levels of Bcl-2 [5]: significant reduction in intracellular levels of Bcl-2

AVPIAQK-Ahx-(DArg)8 (AVPIAQK[Ahx][dR][dR][dR][dR][dR][dR][dR][dR]) [SEQ ID NO: 30, control peptide with poly(DArg)]
intracellular levels of Bcl-2 [5]: not observed

NLWAAQRYGREARRMAAEFVDAFKK [SEQ ID NO: 4]
cell viability (Induction of Apoptosis in CLL Cells), patient sample JCB 178 [1]: 38% | cell viability (Induction of Apoptosis in CLL Cells), patient sample MA G15 [1]: 20% | cell viability (Induction of Apoptosis in CLL Cells), patient sample TJK 328 [1]: 26% | cell viability (Induction of Apoptosis in CLL Cells), patient sample TJK 340 #1 [1]: 46% | cell viability (Induction of Apoptosis in CLL Cells), patient sample TJK 340 #2 [1]: 45% | cell viability (Induction of Apoptosis in CLL Cells), patient sample TJK 375 [1]: 48% | cell viability (Induction of Apoptosis in CLL Cells), Av. [1]: 41% | cell viability of CLL cells [1]: minimal or insignificant changes in viability | cell viability in all the patient CLL samples [1]: minimally effected

NLWAAQRYGREARRMAAEFVDAFKKC-Ahx-(DArg)8 (NLWAAQRYGREARRMAAEFVDAFKKC[Ahx][dR][dR][dR][dR][dR][dR][dR][dR]) [SEQ ID NO: 29, control BAD peptide with poly(DArg)]
change in viability [4]: no change in viability | intracellular levels of Bcl-2 [5]: not observed

NLWAAQRYGRELRRMSDEFVDSFKKC-Ahx*-(DArg)8 (NLWAAQRYGRELRRMSDEFVDSFKKC[Ahx][dR][dR][dR][dR][dR][dR][dR][dR]) [SEQ ID NO: 28]
change in viability [4]: no change in viability | effect on cell viability ([4]; patient TJK379 CLL cells, even at 50 μM): negligible effect | cell viability of cancer cells (concluding statement) ([4]; poly-arginine fused peptide, CLL cells): dramatically reduce cell viability

acetyl-NLWAAQRYGRELRRMADEFVDAFKKC-CRQIKIWFQNRRMKWKK-amide [2336] (D-residues; cyclised or stapled) [compound 2336]
binding to Bcl-2 [6]: does not bind Bcl-2 family Bcl-2/x1 | induction of apoptosis / killing ([7]; AML cells of patient AML-349, FIG. 9): showed less killing | induction of apoptosis ([7]; AML cells of patient AML-728, FIG. 8): does not | activity in reducing cell viability [8]: significantly less active than the 2335 peptide

B1: 2335 peptide, acetyl-NLWAAQRYGRELRRMADEFVDAFKKC-CRQIKIWFQNRRMKWKK-amide (SEQ ID NO: 31) (peptide)
peptide 1: Ac-NLWAAQRYGRELRRMADEFVDAFKKC
peptide 2: CRQIKIWFQNRRMKWKK-NH2
modifications: disulfide I:26-II:1
notes: C-C is a disulfide between two peptides, so it is written here as two chains; also called Bad S/A peptide disulfide linked to penetratin; BAD-BH3 peptide
binding result [9]: binds
